Reference: patent US20230278972A1, “SUBSTITUTED HALOALKYL SULFONANILIDE HERBICIDES” (FMC Corporation, priority 2020, published 2023)

Legend:
[1] = system: ducksalad (Heteranthera limosa); assay: Test B flooded paddy test, ducksalad; conditions: 336 h, read-out: Plant response rating, Ducksalad
kochia (Bassia scoparia) [2] = assay: Test A preemergence, kochia; type: in vivo; conditions: Bassia scoparia, pre-emergence, 240 h
How it was run: (§1)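 Whole-plant herbicidal screen in pots of loam blended with sand. Sprays used a surfactant-containing, non-phytotoxic solvent vehicle. Timing was preemergence soil-directed at planting or postemergence at the one- to two-leaf stage (2–10 cm).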

[3] = system: Foxtail, Giant (giant foxtail, Setaria faberi); assay: Test A preemergence, Foxtail, Giant; type: in vivo; conditions: Setaria faberi, pre-emergence, 240 h
How it was run: as §1

[4] = system: barnyardgrass (Echinochloa crus-galli); assay: Test B flooded paddy test, barnyardgrass; conditions: 336 h, read-out: Plant response rating, Barnyardgrass
[5] = system: Foxtail, Giant (giant foxtail, Setaria faberi); assay: Test A postemergence, Foxtail, Giant; type: in vivo; conditions: Setaria faberi, post-emergence, 240 h, read-out: Plant response rating, Foxtail, Giant
How it was run: as §1

[6] = system: blackgrass (Alopecurus myosuroides); assay: Test A postemergence, blackgrass; type: in vivo; conditions: Alopecurus myosuroides, post-emergence, 240 h, read-out: Plant response rating, Blackgrass
How it was run: as §1

kochia (Bassia scoparia) [7] = assay: Test A postemergence, kochia; type: in vivo; conditions: Bassia scoparia, post-emergence, 240 h, read-out: Plant response rating, Kochia
How it was run: as §1

[8] = system: Ryegrass, Italian (Italian ryegrass, Lolium multiflorum); assay: Test A postemergence, Ryegrass, Italian; type: in vivo; conditions: Lolium multiflorum, post-emergence, 240 h, read-out: Plant response rating, Ryegrass, Italian
How it was run: as §1

[9] = system: pigweed (Amaranthus retroflexus); assay: Test A postemergence, pigweed; type: in vivo; conditions: Amaranthus retroflexus, post-emergence, 240 h, read-out: Plant response rating, Pigweed
How it was run: as §1

[10] = system: ragweed (common ragweed, Ambrosia artemisiifolia); assay: Test A postemergence, ragweed; type: in vivo; conditions: Ambrosia artemisiifolia, post-emergence, 240 h, read-out: Plant response rating, Ragweed
How it was run: as §1

corn (Zea mays) = assay: Test A postemergence, corn; type: in vivo; conditions: Zea mays, post-emergence, 240 h, read-out: Plant response rating, Corn
How it was run: as §1

rice (Oryza sativa) = assay: Test B flooded paddy test, rice; conditions: 336 h, read-out: Plant response rating, Rice
[11] = system: galium (catchweed bedstraw, Galium aparine); assay: Test A postemergence, galium; type: in vivo; conditions: Galium, post-emergence, 240 h, read-out: Plant response rating, Galium
How it was run: (§2)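 Directed soil spray at planting gave the preemergence treatment, while foliar application to one- to two-leaf seedlings (2–10 cm) gave the postemergence one; pots held a loam and sand mixture and chemicals were carried in a non-phytotoxic solvent with surfactant.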

[12] = system: wheat (Triticum aestivum); assay: Test A postemergence, wheat; type: in vivo; conditions: Triticum aestivum, post-emergence, 240 h, read-out: Plant response rating, Wheat
How it was run: as §2

[13] = system: barnyardgrass (Echinochloa crus-galli); assay: Test A postemergence, barnyardgrass; type: in vivo; conditions: Echinochloa crus-galli, post-emergence, 240 h, read-out: Plant response rating, Barnyardgrass
How it was run: as §2

[14] = system: Ryegrass, Italian (Italian ryegrass, Lolium multiflorum); assay: Test A preemergence, Ryegrass, Italian; type: in vivo; conditions: Lolium multiflorum, pre-emergence, 240 h
How it was run: as §1

[15] = system: ragweed (common ragweed, Ambrosia artemisiifolia); assay: Test A preemergence, ragweed; type: in vivo; conditions: Ambrosia artemisiifolia, pre-emergence, 240 h
How it was run: as §1

[16] = system: barnyardgrass (Echinochloa crus-galli); assay: Test A preemergence, barnyardgrass; type: in vivo; conditions: Echinochloa crus-galli, pre-emergence, 240 h
How it was run: as §1

SMILES: Cc1cc(C)c(N(S(=O)(=O)C(F)(F)F)S(=O)(=O)C(F)(F)F)cc1N1CCC2(CCCCC2)C1=O [Compound 267, N-[2,4-Dimethyl-5-(1-oxo-2-azaspiro[4.5]dec-2-yl)phenyl]-1,1,1-trifluoro-N-[(trifluoromethyl)sulfonyl]methanesulfonamide]
- pest or weed control at 250 g/ha [1]: 35%
- pest or weed control at 500 g/ha (kochia (Bassia scoparia) [2]; read-out: Kochia plant response rating): 100%
- pest or weed control at 125 g/ha (kochia (Bassia scoparia) [2]; read-out: Plant response rating, Kochia): 80%
- pest or weed control at 500 g/ha ([3]; read-out: Foxtail, Giant plant response rating): 100%
- pest or weed control at 125 g/ha ([3]; read-out: Plant response rating, Foxtail, Giant): 100%
- pest or weed control at 250 g/ha [4]: 0%
- pest or weed control at 125 g/ha [5]: 0%
- pest or weed control at 500 g/ha [5]: 0%
- pest or weed control at 125 g/ha [6]: 0%
- pest or weed control at 500 g/ha [6]: 20%
- pest or weed control at 125 g/ha (kochia (Bassia scoparia) [7]): 40%
- pest or weed control at 500 g/ha (kochia (Bassia scoparia) [7]): 60%
- pest or weed control at 125 g/ha [8]: 0%
- pest or weed control at 500 g/ha [8]: 30%
- pest or weed control at 125 g/ha [9]: 50%
- pest or weed control at 500 g/ha [9]: 80%
- pest or weed control at 125 g/ha [10]: 10%
- pest or weed control at 500 g/ha [10]: 40%
- plant injury at 125 g/ha (corn (Zea mays)): 0%
- plant injury at 500 g/ha (corn (Zea mays)): 0%
- plant injury at 250 g/ha (rice (Oryza sativa)): 0%
- pest or weed control at 125 g/ha [11]: 80%
- pest or weed control at 500 g/ha [11]: 90%
- plant injury at 125 g/ha [12]: 40%
- plant injury at 500 g/ha [12]: 60%
- pest or weed control at 125 g/ha [13]: 20%
- pest or weed control at 500 g/ha [13]: 20%
- pest or weed control at 125 g/ha ([14]; read-out: Plant response rating, Ryegrass, Italian): 90%
- pest or weed control at 500 g/ha ([14]; read-out: Ryegrass, Italian plant response rating): 100%
- pest or weed control at 125 g/ha ([15]; read-out: Plant response rating, Ragweed): 100%
- pest or weed control at 500 g/ha ([15]; read-out: Ragweed plant response rating): 100%
- pest or weed control at 500 g/ha ([16]; read-out: Barnyardgrass plant response rating): 100%
- pest or weed control at 125 g/ha ([16]; read-out: Plant response rating, Barnyardgrass): 100%
